In patent publication US9187529B2 (priority 2011, dated 2015):
Where “and” joins values, the source holds several entries; their conditions need not be identical. Equal values may be shown once. Ends that are not written are not given here. Peptide text beside a SMILES is read from it.

What was measured:
[1] = rabbit, in vivo
S. aureus MN8 = assay type: cell-based, Staphylococcus aureus
[2] = test system: TSST-1 production of S. aureus MN8; assay type: cell-based, Staphylococcus aureus

Compound | signs of inflammation and vaginal irritation [1] | antimicrobial activity (S. aureus MN8) | TSST-1 % of No Peptide Control [2] | TSST-1 inhibition activity [2] | viable count (10^8 CFU/mL) (S. aureus MN8) | inhibition of MN8 growth (S. aureus MN8) | dose (as low as) giving complete inhibition of TSST-1 production [2]
C[C@H](NC(=O)[C@H](CO)NC(=O)[C@H](CCCCN)NC(=O)[C@H](Cc1c[nH]cn1)NC(=O)[C@H](CO)NC(=O)[C@H](CCCCN)NC(=O)[C@H](CCCCN)NC(=O)[C@H](CCCCN)NC(=O)[C@H](Cc1c[nH]cn1)NC(=O)[C@@H]1CCCN1C(=O)[C@H](CCCCN)NC(=O)[C@H](Cc1ccc(O)cc1)NC(=O)[C@H](CCCCN)NC(=O)[C@H](CCCCN)NC(=O)[C@H](CCCCN)NC(=O)[C@H](CCCCN)NC(=O)[C@@H]1CCCN1C(=O)[C@H](CCCCN)NC(=O)[C@@H](N)CO)C(=O)N[C@@H](CCCCN)C(=O)N[C@@H](CCCCN)C(=O)N[C@@H](CCCCN)C(=O)O [SP-1] (H-SKPKKKKYKPHKKKSHKSAKKK-OH) | No irritation or inflammation was observed | – | – | – | – | – | –
SFPTTATYFPAFDLSAGSAQVA [SP-3] | – | lacked antimicrobial | 100 % of No Peptide Control | lacked antimicrobial and TSST-1 inhibition activity | – | – | –
SFPTTKTYFPHFDLSHGSAQVK [Hbg-1] | – | No antimicrobial activity was observed | – | – | 20 and 22 and 17 and 21 and 19 and 25 | – | –
SFPTTKTYFPHFDLSHGSAQVK-agarose beads (not fully specified (C-terminus)) [Hbg-3] | – | not antimicrobial | – | retained TSST-1 inhibition activity | 21 and 22 and 16 and 20 and 23 | – | –
STKPFFYFLHTQVKASPTSHDG [Hbg-2] | – | not antimicrobial | – | comparably active as Hbg-1 | 24 and 22 and 30 and 25 and 23 | – | –
human neutrophil peptide-1 [HNP-1, reference compound] | – | no antimicrobial activity was observed | – | highly inhibitory of production of TSST-1 | – | approximately 1 log | 10^−3 μg/mL
human neutrophil peptide-2 (CYCRIPACIAGERRYGTCIYQGRLWAFCC; listed as Homo sapiens) [HNP-2, reference compound] | – | no antimicrobial activity was observed | – | highly inhibitory of production of TSST-1 | – | approximately 1 log | 10^−3 μg/mL
